Series [1] deals with T1, human metastin receptor hOT7T175 (Homo sapiens, UniProt Q969F8, L364H).
T1 construct: encoding the entire length of human metastin receptor hOT7T175; expressed in transfected cells; host or cells: CHO/dhFr- cells (ATCC #CRL-9096) stably transfected with pAKKO-hOT7T175; clone h175-16 was used as whole cells for FLIPR
Description: binding inhibiting activity: 125I-metastin (40-54) binding to cell membrane fraction of h175 KB34 cells. The note with it: room temperature 60 minutes, read-out: binding inhibiting activity, represented by the IC50 value. The method in brief:
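The assay buffer (pH 7.4 Tris with magnesium acetate, EGTA and a protease-inhibitor cocktail) was used either plain or supplemented with 1 mg/ml BSA. The radioligand was 125I-labelled human metastin (40-54). The receptor source was a 250-fold diluted membrane fraction of the stable CHO/dhfr− line h175 KB34.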

Experimental findings from patent US20090156646A1, “PYRIDYLPHENOL COMPOUND AND USE THEREOF” (TAKEDA PHARMACEUTICAL COMPANY LIMITED, priority 2005, published 2009) are described below.

T1 sequence (Q969F8 whole entry L364H): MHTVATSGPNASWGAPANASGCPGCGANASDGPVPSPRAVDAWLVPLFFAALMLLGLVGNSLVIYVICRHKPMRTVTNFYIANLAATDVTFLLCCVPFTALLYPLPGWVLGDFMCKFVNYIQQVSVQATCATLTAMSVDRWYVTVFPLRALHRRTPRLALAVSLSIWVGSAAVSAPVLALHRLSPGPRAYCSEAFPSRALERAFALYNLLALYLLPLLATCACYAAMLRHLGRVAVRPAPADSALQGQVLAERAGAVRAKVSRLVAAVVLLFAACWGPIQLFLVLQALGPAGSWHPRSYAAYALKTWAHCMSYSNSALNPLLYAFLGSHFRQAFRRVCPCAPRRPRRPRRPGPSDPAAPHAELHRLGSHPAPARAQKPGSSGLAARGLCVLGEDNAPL

A word on the IC50: it is the concentration at which inhibition is half-maximal. The melting point is the temperature, or range, at which the solid turns liquid. Take `Cl.N#Cc1c(-c2cccc(C(=O)NCCCn3ccnc3)c2)cc(-c2ccc(Cl)cc2O)nc1NC(=O)c1ccco1` [Example 83, N-{6-(4-chloro-2-hydroxyphenyl)-3-cyano-4-[3-({[3-(1H-imidazol-1-yl)propyl]amino}carbonyl)phenyl]pyridin-2-yl}-2-furamide hydrochloride]: the melting point fell in the range of 182 to 184 °C. In series [1], the IC50 is no more than 10 µM.
Compound `Cl.N#Cc1c(-c2cccc(NC(=O)Cn3ccnc3)c2)cc(-c2ccc(Cl)cc2O)nc1NC(=O)c1ccco1` [Example 239, N-(6-(4-chloro-2-hydroxyphenyl)-3-cyano-4-{3-[(1H-imidazole-1-ylacetyl)amino]phenyl}pyridin-2-yl)-2-furamide hydrochloride] registered a melting point of 188 to 194 °C. Besides, the IC50 in series [1] was no more than 10 µM.
Regarding `Cl.N#Cc1c(-c2cccc(C(=O)NC3CCNC3)c2)cc(-c2ccc(F)cc2O)nc1NC(=O)c1cccs1` (stereo not drawn) [Example 79, N-(3-cyano-6-(4-fluoro-2-hydroxyphenyl)-4-{3-[(pyrrolidine-3-ylamino)carbonyl]phenyl}pyridin-2-yl)thiophene-2-carboxamide hydrochloride], the melting point lay in the range of 240 to 241 °C. In addition, the IC50 in series [1] was no more than 10 µM.
Regarding `N#Cc1c(-c2cccc(CNC(=N)N)c2)cc(-c2ccccc2O)nc1NC(=O)c1cccs1.O=C(O)C(F)(F)F` [Example 45, N-{4-[3-({[amino(imino)methyl]amino}methyl)phenyl]-3-cyano-6-(2-hydroxyphenyl)pyridin-2-yl}thiophene-2-carboxamide trifluoroacetate], the melting point fell in the range of 144 to 151 °C. Moreover, the IC50 in series [1] is no more than 10 µM.
The matching figures for `COc1ccccc1C(=O)Nc1nc(-c2ccc(Cl)cc2O)cc(-c2cccc(C(=O)NCC3CCCCN3)c2)c1C#N.Cl` (stereo not drawn) [Example 71, N-[6-(4-chloro-2-hydroxyphenyl)-3-cyano-4-(3-{[(piperidine-2-ylmethyl)amino]carbonyl}phenyl)pyridin-2-yl]-2-methoxybenzamide hydrochloride]: 210 to 217 °C and no more than 10 µM.
The matching figures for `CC(=O)NCCNc1cccc(-c2cc(-c3ccc(F)cc3O)nc(NC(=O)c3ccco3)c2C#N)c1` [Example 307, N-[4-(3-{[2-(acetylamino)ethyl]amino}phenyl)-3-cyano-6-(4-fluoro-2-hydroxyphenyl)pyridin-2-yl]-2-furamide]: 158 to 160 °C and no more than 10 µM.
The matching figures for `CCN1CCC[C@H]1CC(=O)Nc1cccc(-c2cc(-c3ccc(F)cc3O)nc(NC(=O)c3ccco3)c2C#N)c1.Cl` [Example 336, N-[3-cyano-4-[3-({[(2S)-1-ethylpyrrolidin-2-yl]acetyl}amino)phenyl]-6-(4-fluoro-2-hydroxyphenyl)pyridin-2-yl]-2-furamide hydrochloride]: 182 to 187 °C and no more than 10 µM.
For `CCCN(CCC)C(C)CC(=O)Nc1cccc(-c2cc(-c3ccc(F)cc3O)nc(NC(=O)c3ccco3)c2C#N)c1.Cl` (stereo not drawn) [Example 318, N-[3-cyano-4-(3-{[3-(dipropylamino)butanoyl]amino}phenyl)-6-(4-fluoro-2-hydroxyphenyl)pyridin-2-yl]-2-furamide hydrochloride], the melting point fell in the range of 198 to 200 °C. Further, the IC50 in series [1] is no more than 10 µM.
The matching figures for `Cl.N#Cc1c(-c2cccc(NC(=O)[C@@H]3CCCC[C@@H]3N)c2)cc(-c2ccc(F)cc2O)nc1NC(=O)c1ccco1` (racemic) [Example 267, N-{4-[3-({[(1SR,2RS)-2-aminocyclohexyl]carbonyl}amino)phenyl]-3-cyano-6-(4-fluoro-2-hydroxyphenyl)pyridin-2-yl}-2-furamide hydrochloride]: 224 to 225 °C and no more than 10 µM.
The matching figures for `Cl.N#Cc1c(-c2cccc(NC(=O)[C@H](N)Cc3ccccc3)c2)cc(-c2ccc(F)cc2O)nc1NC(=O)c1ccco1` [Example 263, N-{3-[3-cyano-6-(4-fluoro-2-hydroxyphenyl)-2-(2-furoylamino)pyridin-4-yl]phenyl}-D-phenylalaninamide hydrochloride]: 186 to 188 °C and no more than 10 µM.
The matching figures for `Cl.N#Cc1c(-c2cccc(NC(=O)CCN)c2)cc(-c2ccc(Br)cc2O)nc1NC(=O)c1cccs1` [Example 61, N-{4-[3-(β-alanylamino)phenyl]-6-(4-bromo-2-hydroxyphenyl)-3-cyanopyridin-2-yl}thiophene-2-carboxamide hydrochloride]: 203 to 211 °C and no more than 10 µM.
With `CC(CC(=O)Nc1cccc(-c2cc(-c3ccc(F)cc3O)nc(NC(=O)c3ccco3)c2C#N)c1)N(C)C.Cl` (stereo not drawn) [Example 338, N-[3-cyano-4-(3-{[3-(dimethylamino)butanoyl]amino}phenyl)-6-(4-fluoro-2-hydroxyphenyl)pyridin-2-yl]-2-furamide hydrochloride], the melting point was in the range of 233 to 234 °C. Besides, in series [1], the IC50 is no more than 10 µM.
In the same order, the values of `Cl.N#Cc1c(-c2cccc(NC(=O)CCN)c2)cc(-c2ccc(Cl)cc2O)nc1NC(=O)c1ccco1` [Example 63, N-{4-[3-(β-alanylamino)phenyl]-6-(4-chloro-2-hydroxyphenyl)-3-cyanopyridin-2-yl}-2-furamide hydrochloride] are 206 to 212 °C and no more than 10 µM.
The matching figures for `Cl.N#Cc1c(-c2cccc(NC(=O)C3(N)CCC3)c2)cc(-c2ccc(Cl)cc2O)nc1NC(=O)c1ccco1` [Example 65, N-[4-(3-{[(1-aminocyclobutyl)carbonyl]amino}phenyl)-6-(4-chloro-2-hydroxyphenyl)-3-cyanopyridin-2-yl]-2-furamide hydrochloride]: 195 to 200 °C and no more than 10 µM.
Turning to `CN(C)Cc1cccc(-c2cc(-c3ccccc3O)nc(NC(=O)c3cccs3)c2C#N)c1` [Example 2, N-[3-cyano-4-{3-[(dimethylamino)methyl]phenyl}-6-(2-hydroxyphenyl)pyridin-2-yl]thiophene-2-carboxamide], the melting point fell in the range of 225 to 226 °C. In addition, the IC50 in series [1] was no more than 10 µM.
Regarding `Cl.N#Cc1c(-c2cccc(C(=O)NCCCn3ccnc3)c2)cc(-c2ccc(F)cc2O)nc1NC(=O)c1ccco1` [Example 67, N-{3-cyano-6-(4-fluoro-2-hydroxyphenyl)-4-[3-({[3-(1H-imidazole-1-yl)propyl]amino}carbonyl)phenyl]pyridin-2-yl}-2-furamide hydrochloride], the melting point is 173 to 174 °C. In addition, the IC50 in series [1] was no more than 10 µM.
The matching figures for `C[C@@H](N)C(=O)Nc1cccc(-c2cc(-c3ccc(Cl)cc3O)nc(NC(=O)c3ccco3)c2C#N)c1.Cl` [Example 237, N-[4-[3-(alanylamino)phenyl]-6-(4-chloro-2-hydroxyphenyl)-3-cyanopyridin-2-yl]-2-furamide hydrochloride]: 210 to 216 °C and no more than 10 µM.
The matching figures for `COc1ccccc1C(=O)Nc1nc(-c2ccc(F)cc2O)cc(-c2cccc(C(=O)NCCN)c2)c1C#N.Cl` [Example 244, N-[4-(3-{[(2-aminoethyl)amino]carbonyl}phenyl)-3-cyano-6-(4-fluoro-2-hydroxyphenyl)pyridin-2-yl]-2-methoxybenzamide hydrochloride]: 227 to 229 °C and no more than 10 µM.
The matching figures for `Cl.N#Cc1c(-c2cccc(CNC(=O)CCN)c2)cc(-c2ccccc2O)nc1NC(=O)c1cccs1` [Example 44, N-[4-{3-[(β-alanylamino)methyl]phenyl}-3-cyano-6-(2-hydroxyphenyl)pyridin-2-yl]thiophene-2-carboxamide hydrochloride]: 173 to 180 °C and no more than 10 µM.
In turn, `C[C@H](N)C(=O)Nc1cccc(-c2cc(-c3ccc(Cl)cc3O)nc(NC(=O)c3ccco3)c2C#N)c1.Cl` [Example 240, N-[4-[3-(L-alanylamino)phenyl]-6-(4-chloro-2-hydroxyphenyl)-3-cyanopyridin-2-yl]-2-furamide hydrochloride] returned a melting point of 207 to 210 °C. In series [1], the IC50 is no more than 10 µM.
In the same order, the values of `Cl.N#Cc1c(-c2cccc(NC(=O)CN)c2)cc(-c2ccc(F)cc2O)nc1NC(=O)c1ccco1` [Example 329, N-{3-cyano-6-(4-fluoro-2-hydroxyphenyl)-4-[3-(glycylamino)phenyl]pyridin-2-yl}-2-furamide hydrochloride] are 229 to 236 °C and no more than 10 µM.
The matching figures for `CC(C)(CN)CNC(=O)c1cccc(-c2cc(-c3ccc(F)cc3O)nc(NC(=O)c3ccco3)c2C#N)c1.Cl` [Example 77, N-[4-(3-{[(3-amino-2,2-dimethylpropyl)amino]carbonyl}phenyl)-3-cyano-6-(4-fluoro-2-hydroxyphenyl)pyridin-2-yl]-2-furamide hydrochloride]: 256 to 257 °C and no more than 10 µM.
The matching figures for `COc1ccccc1C(=O)Nc1nc(-c2ccc(F)cc2O)cc(-c2cccc(C(=O)NCC(C)(C)CN)c2)c1C#N.Cl` [Example 246, N-[4-(3-{[(3-amino-2,2-dimethylpropyl)amino]carbonyl}phenyl)-3-cyano-6-(4-fluoro-2-hydroxyphenyl)pyridin-2-yl]-2-methoxybenzamide hydrochloride]: 244 to 246 °C and no more than 10 µM.
`Cl.N#Cc1c(-c2cccc(C(=O)N3CCC(N)CC3)c2)cc(-c2ccccc2O)nc1NC(=O)c1cccs1` [Example 5, N-[4-{3-[(4-aminopiperidine-1-yl)carbonyl]phenyl}-3-cyano-6-(2-hydroxyphenyl)pyridin-2-yl]thiophene-2-carboxamide hydrochloride] displayed a melting point of 215 to 218 °C. The IC50 in series [1] was no more than 10 µM.
